Assay results taken from article PMC12261219, “Comparative Evaluation of Thiol- and Amine-Conjugating Moieties for Endogenous Albumin Binding after Intravenous Administration” (ACS Pharmacology & Translational Science, 2025).
Values joined by “and” are separate entries in the source; they are usually repeats but may differ in a detail not shown here. Equal entries are not always repeated. Blank lines part the entries; values can stand above or below the compound they belong to.

Assays:
[1] = Reduction with ascorbic acid, release of oxaliplatin (HPLC); assay type: physicochemical; settings: 0.5 mM, 150 mM PB, pH 7.4, 20 °C, 30 eq. ascorbic acid
Description: The samples were incubated at 20 °C and measured over 25 h. […] RP-HPLC runs were performed using a Waters Acquity UPLC HSS T3 column (100 Å, 1.8 μm, 3.0 mm × 50 mm) on a Dionex Thermo Scientific UltiMate 3000 HPLC system, equipped with a HPG-3400RS binary pump and a DAD-3000RS UV–vis detector. Chromatograms were evaluated at a wavelength of 230 nm. Milli-Q water (mobile phase A) and acetonitrile (mobile phase B), both containing 0.1% TFA, were used as eluents. The flow rate was consistent at 0.6 mL/min for all measurements using the following gradient: 0–0.5 min A 99:1 B, 0.5–5.5 min linear gradient to A 1:99 B, 5.5–6.5 min A 1:99 B, 6.5–9.2 min A 99:1 B.

albumin = target: T1, albumin (Homo sapiens, UniProt P02768); assay: SEC-ICP-MS with single serum protein solution: albumin; assay type: binding; settings: 200 μM albumin, 100 μM compound, 100 mM PB pH 7.4, 37 °C, 2 h
T1 construct: purchased Sigma-Aldrich A8763
T1 sequence (P02768 25-609): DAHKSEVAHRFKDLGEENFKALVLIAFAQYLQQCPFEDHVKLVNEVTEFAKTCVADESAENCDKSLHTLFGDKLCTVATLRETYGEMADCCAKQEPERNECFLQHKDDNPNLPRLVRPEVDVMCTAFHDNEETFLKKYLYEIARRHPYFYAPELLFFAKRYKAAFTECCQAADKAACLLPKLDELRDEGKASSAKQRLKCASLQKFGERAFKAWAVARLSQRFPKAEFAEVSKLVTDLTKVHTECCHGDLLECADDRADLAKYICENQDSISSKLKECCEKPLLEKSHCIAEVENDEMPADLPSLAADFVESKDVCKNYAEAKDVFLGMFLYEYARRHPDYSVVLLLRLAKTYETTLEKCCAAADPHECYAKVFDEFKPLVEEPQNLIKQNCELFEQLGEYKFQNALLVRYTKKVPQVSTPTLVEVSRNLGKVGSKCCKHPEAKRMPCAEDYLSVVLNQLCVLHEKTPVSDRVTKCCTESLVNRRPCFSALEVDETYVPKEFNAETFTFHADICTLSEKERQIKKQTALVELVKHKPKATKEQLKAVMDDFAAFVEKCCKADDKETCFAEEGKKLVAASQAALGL
Description: (§1) All investigated proteins were purchased from commercial suppliers: Albumin (Sigma-Aldrich, A8763), IgG (Athens Research, 16–16–090707), α1-antitrypsin (Sigma-Aldrich, A6150) and apotransferrin (Sigma-Aldrich, T1147). […] The compound stocks were diluted into the protein solution to reach a final concentration of 100 μM (27 μL protein and 3 μL compound). The samples were incubated at 37 °C for 2 h and analyzed as described for the SEC-ICP-MS studies (Tables S6 and S7).

apotransferrin = target: T2, apotransferrin (Homo sapiens, UniProt P02787); assay: SEC-ICP-MS with single serum protein solution: apotransferrin; assay type: binding; settings: 200 μM apotransferrin, 100 μM compound, 100 mM PB pH 7.4, 37 °C, 2 h
T2 construct: purchased Sigma-Aldrich T1147
T2 sequence (P02787 20-698): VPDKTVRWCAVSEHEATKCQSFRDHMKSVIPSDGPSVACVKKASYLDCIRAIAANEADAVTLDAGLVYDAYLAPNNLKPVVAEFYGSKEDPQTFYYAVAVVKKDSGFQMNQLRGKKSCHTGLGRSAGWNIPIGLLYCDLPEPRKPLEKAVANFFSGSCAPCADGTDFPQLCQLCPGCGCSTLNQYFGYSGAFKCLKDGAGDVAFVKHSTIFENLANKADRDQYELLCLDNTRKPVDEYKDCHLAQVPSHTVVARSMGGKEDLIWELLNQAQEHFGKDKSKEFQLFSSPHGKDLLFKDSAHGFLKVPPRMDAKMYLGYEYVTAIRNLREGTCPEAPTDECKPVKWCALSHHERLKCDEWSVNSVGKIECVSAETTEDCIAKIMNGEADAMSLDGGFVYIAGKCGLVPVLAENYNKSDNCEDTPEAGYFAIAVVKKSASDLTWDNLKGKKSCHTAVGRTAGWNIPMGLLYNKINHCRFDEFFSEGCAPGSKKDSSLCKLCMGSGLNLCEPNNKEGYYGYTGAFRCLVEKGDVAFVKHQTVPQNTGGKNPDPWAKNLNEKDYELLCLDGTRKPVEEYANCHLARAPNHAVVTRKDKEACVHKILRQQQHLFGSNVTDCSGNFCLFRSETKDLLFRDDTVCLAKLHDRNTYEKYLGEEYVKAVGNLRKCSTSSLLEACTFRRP
Description: as §1

IgG = assay: SEC-ICP-MS with single serum protein solution: IgG; assay type: binding, human; settings: 200 μM IgG, 100 μM compound, 100 mM PB pH 7.4, 37 °C, 2 h
Description: as §1

albumin (human serum) = target: T3, albumin (human serum) (Homo sapiens, UniProt P02768); assay: SEC-ICP-MS albumin binding in human serum; assay type: in vitro ADME; settings: for Pt195 in HMWF (albumin-bound) / Pt195 in LMWF: 100 µM, 37 °C
T3 construct: Human serum was purchased from Sigma-Aldrich; tissue Sigma-Aldrich; host or cells: human serum
T3 sequence (P02768 25-609): as the sequence (P02768 25-609) above
Description: (§2) Blood of Bab/c mice was collected under anesthesia via heart puncture. […] Human serum was purchased from Sigma-Aldrich. In order to guarantee a stable pH, all sera were buffered with 150 mM phosphate to pH 7.4 by dissolving the necessary amounts of Na2HPO4 and NaH2PO4 directly in the serum. […] The samples were then incubated in the autosampler at 37 °C and analyzed every hour for 4 or 5 h and after 24 h. Between each sample a pure water blank was measured. For measurements with 10 min intervals the same procedure was followed, but the blank measurements were omitted. For SEC-ICP-MS measurements an Agilent 1260 Infinity system coupled to an Agilent 7800 ICP-HRMS equipped with a dynamic reaction cell was used. Oxygen (purity 5.5, Messer Austria GmbH, Gumpoldskirchen, Austria) was used as reaction gas.

α1-antitrypsin = target: T4, α1-antitrypsin (Homo sapiens, UniProt P01009); assay: SEC-ICP-MS with single serum protein solution: α1-antitrypsin; assay type: binding; settings: 200 μM α1-antitrypsin, 100 μM compound, 100 mM PB pH 7.4, 37 °C, 2 h
T4 construct: purchased Sigma-Aldrich A6150
T4 sequence (P01009 25-418): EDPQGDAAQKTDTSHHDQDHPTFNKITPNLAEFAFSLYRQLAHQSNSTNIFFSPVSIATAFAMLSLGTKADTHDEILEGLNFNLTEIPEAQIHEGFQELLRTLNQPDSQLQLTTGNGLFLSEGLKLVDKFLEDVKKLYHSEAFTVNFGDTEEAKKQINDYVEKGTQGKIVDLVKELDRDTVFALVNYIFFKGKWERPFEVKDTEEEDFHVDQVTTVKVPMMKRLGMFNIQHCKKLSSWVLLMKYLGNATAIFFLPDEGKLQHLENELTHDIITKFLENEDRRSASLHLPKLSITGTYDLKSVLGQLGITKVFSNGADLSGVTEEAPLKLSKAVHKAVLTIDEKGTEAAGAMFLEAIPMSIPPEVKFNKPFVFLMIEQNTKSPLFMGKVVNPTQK
Description: as §1

[2] = Serum pharmacokinetics (platinum, ICP-MS) in CT26-bearing Balb/c mice; settings: serum platinum; for Cmax: measured at tmax=0.08 h; for Cmax / CL: single i.v. dose 4.42 mg/kg Pt; for Percentage of AUCPt_0-∞ extrapolated from tlast to infinity: tlast=24 h; for Half-life: terminal half-life; for Half-life / Vz: i.v.; for CL: total body clearance; for Vz: volume of distribution based on the terminal phase
Description: CT26 cells (5 × 10^5 in 50 μL serum-free medium) were injected subcutaneously (s.c.) into the right flank of male Balb/c mice. […] The blood, tumor and organ collection followed the study design in Figure A. Briefly, to assess serum platinum levels, blood was collected after 5 min, 30 min, 5 h and 24 h (2 mice per time point) via the facial vein. The serum was separated by centrifugation (two times 10 min at 900 g) after 10 min clotting at room temperature. […] All collected samples were stored at −20 °C and further processed for platinum measurements via ICP-MS as follows: HNO3 (67–69%, suprapur for trace metal analysis, NORMATOM; Distributor: VWR international, Austria) and conc. H2O2 suprapur (Merck, 30%) were used without further purification. Digestion of tissue (approximately 15–30 mg gravimetrically weighted) was performed with 2 mL of approximately 20% HNO3 and 100 μL H2O2 using an open vessel graphite digestion system (coated graphite heating plate, coated sample holder-top for 25 mL vials, PFA vials and PFA lids; Labter, ODLAB; Distributor: AHF Analysentechnik AG; Germany). Digested samples were diluted in Milli-Q water (18.2 MΩ cm, Milli-Q Advantage, Darmstadt, Germany). For the ICP-MS analysis, platinum and rhenium standards were derived from CPI International (Amsterdam, The Netherlands). The total platinum content was determined with a quadrupole-based Agilent 7800 ICP-MS instrument (Agilent Technologies, Tokyo, Japan) equipped with the Agilent SPS 4 autosampler (Agilent Technologies, Tokyo, Japan) and a MicroMist nebulizer at a sample uptake rate of approximately 0.2 mL/min. An RF power of 1550 W was used as well as nickel cones. Argon was used as plasma gas (15 L/min) and as carrier gas (∼1.1 L/min). The dwell time was set to 0.1 s and the measurements were performed in 6 replicates with 100 sweeps. Rhenium served as internal standard for platinum. The Agilent MassHunter software package (Workstation Software, version C.01.04) was used for data processing.
As platinum was measured in serum, equimolar administered doses were adjusted to correspond to platinum (0.0227 mmol, 4.42 mg platinum). The area under the “concentration”–time curve (AUC) was determined from time 0 to infinity (AUCPt_0‑∞) and from time 0 to 24 h (AUCPt_0–24, based on the last observed sample at 24 h; linear-log trapezoidal calculation method). The terminal slope (λ z ) was determined based on the last two (out of four) measurements (times 5 h and 24 h).

albumin (mouse serum) = target: T5, albumin (mouse serum) (Mus musculus, UniProt P07724); assay: SEC-ICP-MS albumin binding in mouse serum; assay type: in vitro ADME; settings: for Pt195 in HMWF (albumin-bound) / Pt195 in LMWF: 100 µM, 37 °C
T5 construct: The serum was separated by centrifugation (two times 10 min at 900 g) after 10–20 min clotting at room temperature; from tissue; host or cells: serum of Balb/c mice
T5 sequence (P07724 25-608): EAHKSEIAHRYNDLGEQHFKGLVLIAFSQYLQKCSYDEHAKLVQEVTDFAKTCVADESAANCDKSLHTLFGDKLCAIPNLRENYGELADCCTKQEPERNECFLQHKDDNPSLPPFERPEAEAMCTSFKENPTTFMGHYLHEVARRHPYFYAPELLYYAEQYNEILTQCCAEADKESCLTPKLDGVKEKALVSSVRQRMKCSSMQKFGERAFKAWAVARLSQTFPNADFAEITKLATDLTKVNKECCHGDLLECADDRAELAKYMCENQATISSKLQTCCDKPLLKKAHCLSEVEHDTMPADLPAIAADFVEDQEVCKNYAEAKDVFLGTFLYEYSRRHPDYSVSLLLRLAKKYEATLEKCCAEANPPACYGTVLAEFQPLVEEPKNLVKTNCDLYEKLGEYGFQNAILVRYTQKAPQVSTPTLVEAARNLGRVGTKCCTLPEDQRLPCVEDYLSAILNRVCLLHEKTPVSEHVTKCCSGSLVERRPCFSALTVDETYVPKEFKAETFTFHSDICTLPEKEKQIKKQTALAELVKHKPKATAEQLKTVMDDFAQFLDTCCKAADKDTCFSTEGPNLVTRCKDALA
Description: as §2

[3] = pH 7.4, 10 min intervals, 0 min
[4] = pH 7.4, 10 min intervals, 10 min
[5] = pH 7.4, 10 min intervals, 20 min
[6] = pH 7.4, 10 min intervals, 30 min
[7] = pH 7.4, 10 min intervals, 40 min
[8] = pH 7.4, 10 min intervals, 50 min
[9] = pH 7.4, 10 min intervals, 60 min

Oxaliplatin detected (released) after 25 h [1]: 10% | Platinum in the HMWF (protein-bound) (albumin): 26% | Platinum in the HMWF (protein-bound) (apotransferrin): < 5% | Platinum in the HMWF (protein-bound) (IgG): < 5% | Pt195 in HMWF (albumin-bound) (albumin (human serum); pH 7.4, 0 h): 0% | Pt195 in LMWF (albumin (human serum); pH 7.4, 0 h): 100% | Pt195 in HMWF (albumin-bound) (albumin (human serum); pH 7.4, 1 h): 34% | Pt195 in LMWF (albumin (human serum); pH 7.4, 1 h): 66% | Pt195 in HMWF (albumin-bound) (albumin (human serum); pH 7.4, 2 h): 50% | Pt195 in LMWF (albumin (human serum); pH 7.4, 2 h): 50% | Pt195 in HMWF (albumin-bound) (albumin (human serum); pH 7.4, 3 h): 59% | Pt195 in LMWF (albumin (human serum); pH 7.4, 3 h): 41% | Pt195 in HMWF (albumin-bound) (albumin (human serum); pH 7.4, 4 h): 63% | Pt195 in LMWF (albumin (human serum); pH 7.4, 4 h): 37% | Pt195 in HMWF (albumin-bound) (albumin (human serum); pH 7.4, 5 h): 66% | Pt195 in LMWF (albumin (human serum); pH 7.4, 5 h): 34% | Pt195 in HMWF (albumin-bound) (albumin (human serum); pH 7.4, 24 h): 59% | Pt195 in LMWF (albumin (human serum); pH 7.4, 24 h): 41% | Maximum albumin binding (albumin (human serum); reached after several hours): 66% | Platinum in the HMWF (protein-bound) (α1-antitrypsin): 20% | Cmax [2]: 4.61 mg/kg | Percentage of AUCPt_0-∞ extrapolated from tlast to infinity [2]: 45.6% | Half-life [2]: 21.9 h | CL [2]: 0.0685 kg/h/kg | Vz [2]: 2.17 kg/kg | Pt195 in HMWF (albumin-bound) (albumin (mouse serum); [3]): 2% | Pt195 in LMWF (albumin (mouse serum); [3]): 98% | Pt195 in HMWF (albumin-bound) (albumin (mouse serum); [4]): 18% | Pt195 in LMWF (albumin (mouse serum); [4]): 82% | Pt195 in HMWF (albumin-bound) (albumin (mouse serum); [5]): 32% | Pt195 in LMWF (albumin (mouse serum); [5]): 68% | Pt195 in HMWF (albumin-bound) (albumin (mouse serum); [6]): 43% | Pt195 in LMWF (albumin (mouse serum); [6]): 57% | Pt195 in HMWF (albumin-bound) (albumin (mouse serum); [7]): 52% | Pt195 in LMWF (albumin (mouse serum); [7]): 48% | Pt195 in HMWF (albumin-bound) (albumin (mouse serum); [8]): 58% | Pt195 in LMWF (albumin (mouse serum); [8]): 42% | Pt195 in HMWF (albumin-bound) (albumin (mouse serum); [9]): 63% | Pt195 in LMWF (albumin (mouse serum); [9]): 37% | Pt195 in LMWF (albumin (mouse serum); pH 7.4, 1 h intervals, 0 h): 99% | Pt195 in HMWF (albumin-bound) (albumin (mouse serum); pH 7.4, 1 h intervals, 1 h): 65% | Pt195 in LMWF (albumin (mouse serum); pH 7.4, 1 h intervals, 1 h): 35% | Pt195 in HMWF (albumin-bound) (albumin (mouse serum); pH 7.4, 1 h intervals, 2 h): 78% and ~80% | Pt195 in LMWF (albumin (mouse serum); pH 7.4, 1 h intervals, 2 h): 22% | Pt195 in HMWF (albumin-bound) (albumin (mouse serum); pH 7.4, 1 h intervals, 3 h): 82% | Pt195 in LMWF (albumin (mouse serum); pH 7.4, 1 h intervals, 3 h): 18% | Pt195 in HMWF (albumin-bound) (albumin (mouse serum); pH 7.4, 1 h intervals, 4 h): 82% | Pt195 in LMWF (albumin (mouse serum); pH 7.4, 1 h intervals, 4 h): 18% | Pt195 in HMWF (albumin-bound) (albumin (mouse serum); pH 7.4, 1 h intervals, 24 h): 70% | Pt195 in LMWF (albumin (mouse serum); pH 7.4, 1 h intervals, 24 h): 30% | Maximum albumin binding (albumin (mouse serum); reached after several hours): 82%
SMILES: CC(=O)[O][Pt-2]12([O]C(=O)NCCOCCOCCOCCOC(=O)C3=CCCCC3S(=O)(=O)Nc3ccc(F)cc3F)([NH2+]C3CCCCC3[NH2+]1)[O]C(=O)C(=O)[O]2 (mixture of isomers) [DFSA-Ox-OAc, (OC-6–34)-Acetato[(1R,2R)-1,2-cyclohexane-1,2-diamino][(1-(6-(N-(2,4-difluorophenyl)-sulfamoyl)-cyclohex-1-en-1-yl)-1-oxo-2,5,8,11-tetraoxatridecan-13-yl)-carbamato]-oxalato platinum(IV)]

SMILES: CC(=O)[O][Pt-2]12([O]C(=O)NCCOCCOCCOCCOCCN3C(=O)C=CC3=O)([NH2+][C@@H]3CCCC[C@H]3[NH2+]1)[O]C(=O)C(=O)[O]2 [Mal-Ox-OAc, (OC-6–34)-Acetato[(1R,2R)-1,2-cyclohexane-1,2-diamino][ (14-(2,5-dioxo-2,5-dihydro-1H-pyrrol-1-yl)-3,6,9,12-tetraoxatetradecyl)-carbamato]-oxalato platinum(IV)]
Oxaliplatin detected (released) after 25 h [1]: 18% | Platinum in the HMWF (protein-bound) (albumin): 75% | Platinum in the HMWF (protein-bound) (apotransferrin): less than 10% | Platinum in the HMWF (protein-bound) (IgG): less than 20% | Pt195 in HMWF (albumin-bound) (albumin (human serum); pH 7.4, 0 h): 29% | Pt195 in LMWF (albumin (human serum); pH 7.4, 0 h): 71% | Pt195 in HMWF (albumin-bound) (albumin (human serum); pH 7.4, 1 h): 94% and ~90% | Pt195 in LMWF (albumin (human serum); pH 7.4, 1 h): 6% | Pt195 in HMWF (albumin-bound) (albumin (human serum); pH 7.4, 2 h): 94% | Pt195 in LMWF (albumin (human serum); pH 7.4, 2 h): 6% | Pt195 in HMWF (albumin-bound) (albumin (human serum); pH 7.4, 3 h): 94% | Pt195 in LMWF (albumin (human serum); pH 7.4, 3 h): 6% | Pt195 in HMWF (albumin-bound) (albumin (human serum); pH 7.4, 4 h): 94% | Pt195 in LMWF (albumin (human serum); pH 7.4, 4 h): 6% | Pt195 in HMWF (albumin-bound) (albumin (human serum); pH 7.4, 5 h): 94% | Pt195 in LMWF (albumin (human serum); pH 7.4, 5 h): 6% | Pt195 in HMWF (albumin-bound) (albumin (human serum); pH 7.4, 24 h): 93% | Pt195 in LMWF (albumin (human serum); pH 7.4, 24 h): 7% | Bound to albumin (albumin (human serum); from 1 to 24 h): ~90% | Platinum in the HMWF (protein-bound) (α1-antitrypsin): ~30% | Cmax [2]: 35.6 mg/kg | Percentage of AUCPt_0-∞ extrapolated from tlast to infinity [2]: 27.7% | Half-life [2]: 12.2 h | CL [2]: 0.00892 kg/h/kg | Vz [2]: 0.157 kg/kg | Pt195 in HMWF (albumin-bound) (albumin (mouse serum); [3]): 36% | Pt195 in LMWF (albumin (mouse serum); [3]): 64% | Pt195 in HMWF (albumin-bound) (albumin (mouse serum); [4]): 58% and ~60% | Pt195 in LMWF (albumin (mouse serum); [4]): 42% | Pt195 in HMWF (albumin-bound) (albumin (mouse serum); [5]): 68% | Pt195 in LMWF (albumin (mouse serum); [5]): 32% | Pt195 in HMWF (albumin-bound) (albumin (mouse serum); [6]): 74% | Pt195 in LMWF (albumin (mouse serum); [6]): 26% | Pt195 in HMWF (albumin-bound) (albumin (mouse serum); [7]): 78% | Pt195 in LMWF (albumin (mouse serum); [7]): 22% | Pt195 in HMWF (albumin-bound) (albumin (mouse serum); [8]): 79% | Pt195 in LMWF (albumin (mouse serum); [8]): 21% | Pt195 in HMWF (albumin-bound) (albumin (mouse serum); [9]): 80% | Pt195 in LMWF (albumin (mouse serum); [9]): 20% | Pt195 in LMWF (albumin (mouse serum); pH 7.4, 1 h intervals, 0 h): 66% | Pt195 in HMWF (albumin-bound) (albumin (mouse serum); pH 7.4, 1 h intervals, 1 h): 75% | Pt195 in LMWF (albumin (mouse serum); pH 7.4, 1 h intervals, 1 h): 25% | Pt195 in HMWF (albumin-bound) (albumin (mouse serum); pH 7.4, 1 h intervals, 2 h): 74% | Pt195 in LMWF (albumin (mouse serum); pH 7.4, 1 h intervals, 2 h): 26% | Pt195 in HMWF (albumin-bound) (albumin (mouse serum); pH 7.4, 1 h intervals, 3 h): 74% | Pt195 in LMWF (albumin (mouse serum); pH 7.4, 1 h intervals, 3 h): 26% | Pt195 in HMWF (albumin-bound) (albumin (mouse serum); pH 7.4, 1 h intervals, 4 h): 74% | Pt195 in LMWF (albumin (mouse serum); pH 7.4, 1 h intervals, 4 h): 26% | Pt195 in HMWF (albumin-bound) (albumin (mouse serum); pH 7.4, 1 h intervals, 24 h): 75% | Pt195 in LMWF (albumin (mouse serum); pH 7.4, 1 h intervals, 24 h): 25%
